In the assay the test system is 282377-053-R-J1-PDC complex spheroids, viability. Put plainly: Anticancer human tumor 282377-053-R-J1-PDC patient-derived colon adenocarcinoma cell line growth inhibition [GQUAD]. To be noted: for viability, T/C: stronger effect = lower value. The source says: DNA G-quadruplex Stabilizer Agents in Combinations in Complex Spheroids
A high-throughput screen of multi-cell type tumor spheroids was designed to identify active combinations of DNA G-quadruplex stabilizer agents and targeted small molecules. Complex spheroids include a stromal component modeled by human endothelial cells (HUVEC) and fibroblasts modeled by human mesenchymal stem cells (MSCs). The concentration ranges selected for each drug and investigational agent were based upon clinically achievable concentrations if the clinical Cmax of the agent was known.
Compounds. The drugs and investigational agents: pidnarulex (CX-5461; NSC782164), APTO-253 (NSC789042), BRACO-19 (NSC847499), peposertib (NSC802822), ceralasertib (NSC780249), elimusertib (NSC800525), camonsertib (NSC841442), AZD-1390 (NSC803789), olaparib (NSC753686), talazoparib (NSC767125), ART-558 (NSC835418), sotorasib (NSC818433), MRTX-1133 (NSC836407), SN-38 (NSC673596), topotecan (NSC609699), etoposide (NSC141540), doxorubicin (NSC123127), gemcitabine (NSC613327), 5-fluorouracil (NSC19893), paclitaxel (NSC125973), vemurafenib (NSC761431), panobinostat (NSC761190), R-306465 (JNJ-16241199; NSC773264), adavosertib (NSC754352), TP-3654 (NSC805149), carboplatin (NSC241240), KSQ-4279 (NSC840948), and staurosporine (NSC755774) were obtained from the National Cancer Institute (NCI) Developmental Therapeutics Program Chemical Repository (34). The FDA-approved anticancer drug set is available from the NCI Developmental Therapeutics Program. […] The stock solutions were prepared in dimethyl sulfoxide (DMSO, Sigma-Aldrich, St. Louis, MO, cat. D2650) at 800-fold the tested concentration and stored at -70 degrees C prior to their use. All drugs and investigational agents were tested over a range starting from a high concentration at or near the clinical Cmax and decreasing in half-log increments. If the clinical Cmax for an agent had not been determined, the highest concentration tested was 10 microM.
2.3 Cell Culture. All cells were maintained in an incubator at 37 degrees C and 5% CO2 with 95% humidity. The PDC lines were cultured according to standard operating procedures established by the NCI PDMR. All PDCs were thawed and cultured in Matrigel-coated flasks prepared with a working solution of 1X Ham's F-12 nutrient mix, without supplementation (Invitrogen, cat. 11765054), 100 U/mL penicillin-streptomycin (Invitrogen, cat. 15140122), and 2.5% Matrigel (Corning Inc., cat. 354248) for the first three passages. The 857933-349-R-J2-PDC line was cultured in 6C/Colon 1B media, which includes advanced DMEM/F-12 (Thermo Fisher Scientific, cat. 12634028), 10 mM HEPES (Thermo Fisher Scientific, cat. 15630080), 1X GlutaMAX supplement (Thermo Fisher Scientific, cat. 35050061), 0.1 mg/mL primocin (InvivoGen, cat. ant-pm-2), 10% defined fetal bovine serum, heat inactivated (HyClone Laboratories Inc., cat. SH30070.03HI), 50% L-WRN conditioned media (ATCC, cat. CRL-3276), 1.25 mM N-Acetyl-L-cysteine (Sigma-Aldrich, cat. A9165), 10 mM nicotinamide (Sigma-Aldrich, cat. N0636), 1X B-27 supplement (Thermo Fisher Scientific, cat. 17504044), 1X N-2 supplement (Thermo Fisher Scientific, cat. 17502048), 10 microM Y-27632 dihydrochloride (Tocris Bioscience, cat. 1254), and 50 ng/mL human EGF recombinant protein (Thermo Fisher Scientific, cat. PHG0311). The 485176-168-R4-J1-PDC line was cultured in Panc media, which includes all 6C/Colon 1B media components plus 100 ng/mL human FGF-10 (Thermo Fisher Scientific, cat. 100-26), 500 nM SB-431542 (Selleckchem, cat. S1067), and gastrin (Tocris, cat. 3006).
[…]

Where “and” joins values, the source holds several entries; their conditions need not be identical. Equal values may be shown once.

This is an account of results in PubChem BioAssay AID2060501 (Molecular Pharmacology Branch, DTP, NCI, 2025).

Usually viability, T/C stands for the result in the treated group divided by that in the control group, in per cent. As a reminder, the IC50 is the midpoint of a concentration-inhibition curve.
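Note: spheroids exposed to compounds for 7 days before readout.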
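Throughout, for viability, T/C: percent of vehicle DMSO control viability with 100% = untreated-like growth.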

With `COc1cc(C2c3cc4c(cc3C(OC3OC5COC(C)OC5C(O)C3O)C3COC(=O)C23)OCO4)cc(OC)c1O` (stereo unspecified), the viability, T/C (compound 0.0316 µM) is 111% and 82.8% and 104%; the viability, T/C (compound 0.1 µM) is 90.5% and 97% and 92.2%; the viability, T/C (compound 0.316 µM) was 111% and 90.5% and 98.7%; the viability, T/C (compound 1 µM) is 99.6% and 110% and 104%; the viability, T/C (compound 3.16 µM) was 61.1% and 67.3% and 96.7%; the viability, T/C (compound 10 µM) is 56.5% and 50% and 72.2%. Also, under “curve of compound”, the IC50 is over 10000 nM.
Take `COc1ccc([C@@H](O)c2cc(-c3ncnc4cc(N5CCOCC5)ccc34)c(F)cc2Cl)nn1`: the viability, T/C (compound 0.0316 µM) is 86.5% and 96.3% and 89.9%; the viability, T/C (compound 0.1 µM) was 85.6% and 80.6% and 90.8%; the viability, T/C (compound 0.316 µM) is 74.5% and 109% and 86.2%; the viability, T/C (compound 1 µM) was 67.9% and 79.6% and 93.6%; the viability, T/C (compound 3.16 µM) was 68.9% and 82.5% and 101%; the viability, T/C (compound 10 µM) was 57.6% and 61.8% and 71.7%. The IC50 (curve of compound) is over 10000 nM.
In the case of `COc1cccc2c1C(=O)c1c(O)c3c(c(O)c1C2=O)CC(O)(C(=O)CO)CC3OC1CC(N)C(O)C(C)O1` (stereo unspecified), the viability, T/C runs as follows: (compound 0.0316 µM) 109% and 108% and 110%; (compound 0.1 µM) 110% and 102% and 101%; (compound 0.316 µM) 92.8% and 109% and 77.7%; (compound 1 µM) 54.2% and 77.3% and 56%; (compound 3.16 µM) 15.7% and 29.5% and 13.9%; (compound 10 µM) 1.35% and 2.21% and 0.95%. The IC50 (curve of compound) is 1130 nM and 1940 nM and 1010 nM.
For `Cc1[nH]c2ccc(F)cc2c1-c1nc2c3cccnc3c3ncccc3c2[nH]1`, the viability, T/C (compound 0.0316 µM) was 91.7% [middle of 12 runs]. Besides, the IC50 by setting is: (compound alone, run of 04/16/2024) > 10000 nM and 8360 nM and 8060 nM; (compound alone, run of 04/22/2024) > 10000 nM and 9040 nM and 7370 nM.
`Cc1[nH]c2ccccc2c1CCNCc1ccc(/C=C/C(=O)NO)cc1`: the viability, T/C reads like this: (compound 0.000999 µM) 108% and 110% and 106%; (compound 0.00316 µM) 88.2% and 101% and 95.5%; (compound 0.00999 µM) 84.7% and 96.6% and 98.5%; (compound 0.0316 µM) 97.4% and 118% and 105%; (compound 0.0999 µM) 115% and 98.6% and 72.2%. Further, the IC50 (curve of compound) was > 316 nM and 185 nM and 145 nM.
On to `Cc1cccc(N(C)C(=O)C2C(O)CCN2c2nc(C)cc(C(F)(F)F)c2C#N)c1` (stereo unspecified), for which the viability, T/C (compound 0.0316 µM) is 121% and 97.5% and 105%; the viability, T/C (compound 0.1 µM) is 83% and 85.8% and 99.7%; the viability, T/C (compound 0.316 µM) is 103% and 89.3% and 99.5%; the viability, T/C (compound 1 µM) was 89.3% and 97.7% and 105%; the viability, T/C (compound 3.16 µM) was 98.2% and 99.2% and 94.4%; the viability, T/C (compound 10 µM) was 80.9% and 80.7% and 90.8%. For the same compound, the IC50 (curve of compound) was over 10000 nM.
For `Cn1ncnc1[C@H]1c2n[nH]c(=O)c3cc(F)cc(c23)N[C@@H]1c1ccc(F)cc1`, the viability, T/C was 109% and 105% and 89.3% (compound 0.000999 µM); 106% and 88.2% and 91.4% (compound 0.00316 µM); 106% and 94.9% and 99.7% (compound 0.00999 µM); 85% and 109% and 106% (compound 0.0316 µM); 106% and 97.6% and 113% (compound 0.0999 µM); 96.5% and 113% and 105% (compound 0.316 µM). The IC50 (curve of compound) was over 316 nM.
`Nc1ccn(C2OC(CO)C(O)C2(F)F)c(=O)n1` (stereo unspecified): the viability, T/C is 97% and 108% and 101% (compound 0.0316 µM); 76% and 78.1% and 78.7% (compound 0.1 µM); 37.7% and 50.4% and 35.4% (compound 0.316 µM); 34.4% (2×) and 26.7% (compound 1 µM); 25.4% and 37.8% and 20.9% (compound 3.16 µM); 18.3% and 20.1% and 17.3% (compound 10 µM). The half-maximal inhibitory concentration (IC50) (curve of compound) was 235 nM and 382 nM and 219 nM.
On to `O=C(NO)c1cnc(N2CCN(S(=O)(=O)c3ccc4ccccc4c3)CC2)nc1`, for which the viability, T/C runs as follows: (compound 0.0316 µM) 58.1% and 117% and 100%; (compound 0.1 µM) 20% and 107% and 82%; (compound 0.316 µM) 22.4% and 79.1% and 64.8%; (compound 1 µM) 21.8% and 2.34% and 0.84%; (compound 3.16 µM) 24.6% and 0.24% and 0.11%; (compound 10 µM) 25.1% and 0.26% and 0.18%.
`O=C(c1cc(Cc2n[nH]c(=O)c3ccccc23)ccc1F)N1CCN(C(=O)C2CC2)CC1`: the viability, T/C reads like this: (compound 0.0316 µM) 98.7% and 97.4% and 108%; (compound 0.1 µM) 111% and 100% and 110%; (compound 0.316 µM) 100% and 98.7% and 102%; (compound 1 µM) 93.8% and 105% and 109%; (compound 3.16 µM) 116% and 100% and 111%; (compound 10 µM) 106% and 82.9% and 90.7%. Further, the IC50 (curve of compound) is over 10000 nM.
As for `O=c1[nH]cc(F)c(=O)[nH]1`, the viability, T/C runs as follows: (compound 0.0316 µM) 94.9% and 109% and 94.2%; (compound 0.1 µM) 107% (2×) and 88.7%; (compound 0.316 µM) 107% and 102% and 96.5%; (compound 1 µM) 88.8% and 92.9% and 94.9%; (compound 3.16 µM) 87.9% and 80.7% and 79.4%; (compound 10 µM) 80.8% and 69.7% and 70.6%. For the same compound, the IC50 (curve of compound) was over 10000 nM.
